Assay results: the NIST ThermoML archive (doi:10.1016/j.jct.2009.11.013)
Numbers after ± are expanded uncertainties.

Assays:
[1] = molar enthalpy of vaporization or sublimation; settings: 298.15 K; Liquid; Calvet microcalorimetry
[2] = Liquid; Calvet microcalorimetry

SMILES | molar enthalpy [1] [kcal/mol] | Normal boiling temperature [2] [°C]
O=C1C=CCS1 [2(5H)-thiophenone] | 13.4 ± 0.574 | 103 ± 0.2
O=C1C=CCO1 [(5H)-furan-2-one] | 13.3 ± 0.621 | 
